Results reported in US9784752B2, “Venlafaxine assay” (Randox Laboratories, Limited, priority 2012, dated 2017).
Values after ≈ are worked out from the molar mass of the structure shown.

Tested on: polyclonal antibody raised to Immunogen II
Test: Competitive biochip immunoassay (Evidence Investigator) with Hapten-1 HRP detecting agent
Assay type: binding, sheep
Conditions: for % Cross-reactivity: %CR calculated from IC50 ratio x 100; for IC50: concentration causing 50% displacement of signal, competition with Hapten-1 HRP for immobilised polyclonal antibody, 30 minutes at 30° C.
Experimental: A semi-automated Evidence Investigator analyser (Randox Laboratories Ltd., Crumlin, UK) was used as the platform for a biochip assay for the detection of venlafaxine and O-desmethylvenlafaxine. Immunogen II was administered to adult sheep on a monthly basis to provide target-specific polyclonal antisera. IgG was extracted from the antisera, and the purified antibody was immobilised on a biochip (9 mm×9 mm). The assay is based on competition for binding sites of a polyclonal antibody between Hapten-1HRP detecting agent (Example 10) and venlafaxine and O-desmethylvenlafaxine and potential cross-reactants. The antibody was immobilised and stabilised onto the biochip surface as previously described (Fitzgerald et al., 2005). Assay diluent (155 μL), calibrator/venlafaxine and O-desmethylvenlafaxine or potential cross-reactant (25 μL) followed by Hapten-1 HRP detecting agent (120 μL) were added to the appropriate biochip. The biochips were then incubated for 30 minutes at 30° C. on a thermoshaker set at 370 rpm. The biochips were then subjected to 2 quick wash cycles using the wash buffer provided, followed by 4×2 minute wash cycles. 250 μL of signal (1:1 luminol+peroxide, v/v) was then added to each biochip, and after 2 minutes the biochip carrier was imaged in the Evidence Investigator analyser. Calibration curves were generated and these were used to determine the sensitivity and specificity of the immunoassay for venlafaxine, O-desmethylvenlafaxine and potential cross-reactants.
Table 1, cross-reactivity being calculated according to the following formula: %CR=IC50,O-desmethylvenlafaxine/IC50,CR×100 where % CR is the percentage cross-reactivity, IC50, O-desmethylvenlafaxine is the concentration of O-desmethylvenlafaxine which causes 50% displacement of signal and IC50, CR is the concentration of venlafaxine or potential cross-reactant that causes 50% displacement of signal.

SMILES | % Cross-reactivity | IC50
CNCC1CCCCC1(O)c1cccc(OC)c1 (centres unmarked) [N-Desmethyltramadol] | <5.7% | >0.32 mg/L
c1ccc(C2(N3CCCCC3)CCCCC2)cc1 [PCP] | <5.7% | >0.32 mg/L
CCOC(=O)C1(c2ccccc2)CCN(C)CC1 [Meperidine] | <5.7% | 
COc1cccc(C2(O)CCCCC2CN(C)C)c1 (centres unmarked) [Tramadol] | <5.7% | 
COc1ccc(C(CN(C)C)C2(O)CCCCC2)cc1 (racemic) [Venlafaxine, (RS)-1-[2-(dimethylamino)-1-(4-methoxyphenyl)ethyl]cyclohexanol] | 100% | 0.01831 mg/L (≈ 0.066 µM)
CN(C)CC(c1ccc(O)cc1)C1(O)CCCCC1 (racemic) [O-Desmethylvenlafaxine, (RS)-1-[2-(dimethylamino)-1-(4-hydroxyphenyl)ethyl]cyclohexanol] | 48.4% | 0.03786 mg/L (≈ 0.144 µM)
COC(=O)C(c1ccccc1)C1CCCCN1 (centres unmarked) [Methylphenidate] | <5.7% | >0.32 mg/L
CN(C)C[C@H]1CCCC[C@]1(O)c1cccc(O)c1 [O-Desmethyltramadol] | <5.7% | >0.32 mg/L
